The text below walks through data of patent US5310938A, “Substituted arylpyrrole compounds” (American Cyanamid Company, priority 1993, dated 1994).

The structures appear in SMILES notation. Where “and” joins values, the source holds several entries; their conditions need not be identical. Equal entries are not always repeated. Where two headings read alike, the source gives them in different places.

Assay [1] deals with Dermacentor variabilis. Description: Filter paper contact test against larval stages of the Dogtick. It is filed as in vivo. How it is done:
The test procedure used herein is the same procedure described in Example 2, for evaluating the arylpyrroles for control of Psoroptes cuniculi the Rabbit Ear Mite, with the following exceptions:
(1) Unfed larval ticks are obtained from egg masses laid by gravid female ticks removed from dogs and each replicate receives ticks from the same egg mass;
(2) Ticks survive longer than mites in the Petri dishes, thus readings are made 48 hours or longer after the test is initiated; and
(3) When reading the test it may be necessary to blow on the ticks to stimulate their movement.

In assay [2] the test system is Ctenocephalides felis. Description: Filter paper contact test against the cat flea. It counts as in vivo. To be noted: 20.0 μg/cm^2, 24 hour. On the procedure:
This test is conducted in the same manner as the mite filter paper test described in Example 2 with the following exceptions:
(1) only one filter paper is used on the bottom of the dish;
(2) Unfed fleas that have emerged from pupae within the last 24 hours are used for the test. Fleas are initially collected in glass vials and then temporarily immobilized by placing the vials in ice. Once the fleas are no longer active, vials are opened and fleas dumped into Petri dishes. The number of fleas per dish will vary but generally contain 8-12 fleas.
(3) Dishes are held for 24 hours until the mortality counts are made;
(4) Edges of the Petri dish are sealed with Scotch tape to prevent escape of the fleas; and
(5) Dishes are not opened when test is read but fleas are observed under dissecting scope in the dishes. Some fleas will move under the filter paper so dish should be inverted to check. Fleas are considered dead if they cannot remain upright and jump.

In assay [3] the test system is Housefly Larvae. Description: Inhibition of pupation of newly emerged housefly larvae. It is filed as in vivo. To be noted: Musca domestica, 168 h, one week, 27° C., corrected by Abbott's formula. How it is done:
In this test system newly emerged housefly larvae are grown on an undefined medium of fermented whole milk and dried beef blood. Compounds are added to the milk and activity is determined by the failure of larvae to pupate.
The test is run in 1 oz. plastic medicine cups. Paper toweling is cut in pieces approximately 3.5×10 cm. Three of these pieces are folded accordion style and placed in each paper cup. A piece of masking tape is placed on the outside of the cup to facilitate numbering. Cups should be prepared prior to the day the test is to begin.
Newly hatched housefly larvae are obtained on the morning the test is to begin. The eggs are laid the night before and larvae usually begin to hatch by 9-10 AM the following morning.
Twenty-four hours before the initiation of the test, one half gallon of whole milk is divided into 5 1-liter beakers and placed in an incubator at 39° C.
The morning of the test, one 250 ml beaker is labeled for each treatment. The fermented milk is removed from the incubator, stirred and poured into each of the small beakers. The beakers are then returned to the incubator and 1-2 g of dried beef blood added to each beaker to distribute blood which will not dissolve. The beakers are again returned to the incubator.
Doses of compounds are calculated so that 0.1 ml contains the amount of compound to be added to 100 ml of milk. Compounds should be dissolved in acetone. 100 μl of acetone is added to each control beaker.
Each beaker is removed from incubator and placed on a magnetic stirrer. The compound is added and thoroughly mixed. Then 20 ml portions are removed and added to labelled test cups (4 reps/treatment). Cups are placed in stainless steel tray until all are prepared. […] The tray containing the cups are then placed in a plastic bag and maintained at room temperature.
The media that the fly eggs are laid in is spread out in a green or black pan so that larvae can be observed. Working under an illuminated magnifier 20 larvae are transferred into each cup using a fine paint brush. Each cup is then sealed in a Zip-Loc sandwich bag with a few pinholes in it.
Bags containing cups are placed on a flat tray and placed in a 27° C. incubator for one week. The majority of the larvae will have pupated at this point.
Trays are then removed from the incubator and the number of pupae in each bag recorded. The paper toweling is removed and examined closely for any pupae that have remained in the cups. Most of the pupae will be loose in the bag. A note is also made of any dead or live developed larvae. If there are larvae that appear capable of pupating, the bag may be returned to the incubator for a day to see if they will pupate.
The percent development of pupae is then calculated. The final results are expressed as a percent inhibition of pupation and are corrected for control mortality by using Abbott's formula.

Assay [4] has as its system Psoroptes cuniculi. The assay is described as follows: Filter paper contact test against Psoroptes cuniculi (Rabbit Ear Mite). To be noted: Psoroptes ovis. It is filed as in vivo. How it is done: On the day prior to the test initiation the drugs to be evaluated are dissolved in acetone and diluted to the desired concentrations. The concentration is calculated so that 400 μl contains the amount of test compound to be placed on each filter paper. 400 μl of this solution is pipetted onto a top (3.7 cm dia.) and bottom (3.5 cm dia.) filter paper disks which are then placed on a ceramic plate to dry. There is a rough and smooth side to the filter paper. Drug should be applied to the rough side which is placed up while drying. When dry the two disks are placed in a Petri dish with the rough sides facing in, separated by one 3 mm glass bead. Dishes are held at room temperature overnight if done the day before the test.
Scab (containing mites) is collected from the ears of infested rabbits the morning of the test. This material is placed in a large Petri dish under an illuminated magnifier. Mites crawl out of the scab and are easily collected on the point of a dissecting needle or one prong of a pair of fine forceps. The top filter paper in each dish is removed and 12 mites are placed on the bottom disk and the top paper replaced. Before replacing the top of the Petri dish the rim of the dish is smeared with Vaseline to trap any escaping mites.
For evaluation tests there are generally 4 replicates of each dose which are counted at 24 hours. After mites are added to the dishes, the dishes in each replicate are placed in a tray which is then placed in a plastic bag with several wet towels and held at room temperature.
After 24 hours dishes are examined under a dissecting scope. Each dish is opened carefully and the top filter paper removed and saved. A 1/2 cm circle is drawn on the bottom filter paper and the paper gently wet in the area of the circle. All mites from the dish are transferred into the wet circle area and counted. The top cover is replaced on each dish and the dishes set aside for at least 15 minutes. After standing the dishes are examined and the mites remaining on the circle counted. These mites are dead. Percent mortality of the mites is then calculated for each treatment.

Assay [5] concerns Caenorhabditis elegans. The assay is described as follows: Nematicidal activity against C. elegans (motility rating). More on the design: scale not given here. It counts as in vivo, C. elegans (Bristol strain). To be noted: read at 4 and 24 hours post-immersion. On the procedure: Cultures of C. elegans (Bristol strain from J. Lewis) are maintained on E. coli lawns on NG Agar Plates at 20° C. New cultures are established weekly.
Nematodes for testing are washed from 4-5 day old cultures using Fresh Ascaris Ringers Solution (FARS). The worms are further washed with FARS,-containing gentamycin, to reduce bacterial contamination and centrifuged to separate worms from wash solution. This procedure is repeated three times. The washed worms are then added to C. brigassae Maintenance Medium (CbMM), from GIBCOa to which is added gentamycin (600 units/ml) and mycostatin (0.5 mg/ml).
Compounds are dissolved in acetone and made up to volume with equal parts of water. The final test concentration of each compound in the mixture is 150 ppm. The test material is micropipetted (25 ul) into a single well of a 96-well sterile tissue culture plate (COSTAR)^b and the solvent allowed to evaporate. These "treated" plates are used immediately or stored in a refrigerator without apparent adverse effects on the compounds.
A freshly prepared volume ([…]) of C. elegans in CbMM is micropipetted into each treated well and several control wells per plate. Culture plates are incubated at 20° C.
Observations for efficacy are made under a dissecting microscope at 4 and 24 hours post-immersion. Immediately prior to reading the plate, it is gently tapped to stimulate the movement of the worms. Activity is judged based on the drug effects on motility of the adults and larvae. […] Other factors indicating activity are easily noted such as death, rigor mortis, contraction, coiling, paralysis, abnormal twitching, reduced worm population in 48 hours and other deviation from normal behavior.
Day 0 Inoculate E. Coli-NG Agar Dish With 30-40
Day 4 Harvest New C. Elegans Population
Add C. Elegans (25-100 µL) To "Medicated"
Observe for Activity at 4 hours Post-
Day 5 Observe For Activity

In assay [6] the test system is Trichostrongylus colubriformis. The assay is described as follows: Control of helminths (T. colubriformis) in infected gerbils. It is filed as in vivo, Trichostrongylus colubriformis (sheep origin) in gerbils. The text has this: Each test generally consists of 75 infected gerbils, randomly distributed 2 or 3 per cage (the number of animals per cage is consistent within a specific experiment). Generally, there are 8-9 untreated control gerbils (3-4 cages) per test. The remaining cages are assigned a treatment, usually 1 cage per compound or dose.
Compounds administered in diet are fed for 4 days. Animals treated by gavage or injection are generally treated on only 1 day (usually day 7).
In accordance with this test, gerbils are each orally infected by gavage, with about 400 Trichostrongylus colubriformis infective larvae of sheep origin. The infected animals are then permitted to feed and drink ad libitum for six days. On day 7 the infected gerbils are randomly placed in rodent cages 2 or 3 animals per cage. The animals in each cage are weighed and the feed for each cage weighed. If the treatment to be evaluated is medicated feed, said medicated feed is offered on day 7 and continued through day 11 of the trial. If the treatment to be evaluated is a single oral dose or a parenteral treatment, the animals are given the medication by gavage or injection on day 7 and receive unmedicated feed and water through day 11 of the trial. On day 11 the animals and their feed are weighed. Thereafter the animals are euthanized by CO2 inhalation and their small intestines removed, inverted on application sticks and incubated in tap water at 39° C. for 1-5 hours. The sticks and intestines are then discarded and the worms from each treatment counted to determine the % mortality of the worms as compared to untreated controls.

The mark [7] stands for this setting: 24 h, read-out: 24 hour % Mortality.
Setting [8] is: 4.0 μg/cm^2, 24 hour, read-out: 24 hour % Mortality.

What is called mortality is the share of the test organisms that died. What is called inhibition is the percentage by which the read-out fell short of the control. As to `CCOCn1c(Cl)c(Cl)c(C#N)c1-c1ccc(C(F)(F)F)cc1` [4,5-Dichloro-1-(ethoxymethyl)-2-(α,α,α-trifluoro-P-tolyl)pyrrole-3-carbonitrile], the mortality at 1 µg/cm2, 1 µg/cm2 came out at 52% in assay [1] (1.0 μg/cm^2, 48 hour) and 100% in assay [4] (1.0 μg/cm^2, 24 hour). In assay [1] (5.0 μg/cm^2, 48 hour), this molecule came in with a mortality at 5 µg/cm2, 5 µg/cm2 of 100%. This molecule also displayed a mortality at 10 µg/cm2, 10 µg/cm2 in assay [1] (10.0 μg/cm^2, 48 hour) of 97%. This molecule also gave a mortality at 20 µg/cm2, 20 µg/cm2 in assay [2] of 71%. This molecule also came in with an inhibition at 10 ppm in assay [3] of 64%. In addition, in assay [4] (setting [7]), the mortality at 0.01 µg/cm2, 0.01 µg/cm2 was found to be 48%. In assay [4] (0.1 μg/cm^2, 24 hour), this molecule returned a mortality at 0.1 µg/cm2, 0.1 µg/cm2 of 20%. Moreover, in assay [4] (setting [8]), the mortality at 4 µg/cm2, 4 µg/cm2 was 92%. In assay [4] (16.0 μg/cm^2, 24 hour), this molecule returned a mortality at 16 µg/cm2, 16 µg/cm2 of 100%. Moreover, in assay [5], the “Rating Against C. Elegans 150 ppm” value is 9.
`CCOCn1c(-c2ccc(Cl)c(Cl)c2)c(C#N)c(Br)c1C(F)(F)F` [4-bromo-2-(3,4-dichlorophenyl)-1-(ethoxymethyl)-5-(trifluoromethyl)-pyrrole-3-carbonitrile]: the “% Helminth removal” value in assay [6] (500 PPM in diet, 4 days) is 15% and 28%. In assay [5], the “Rating Against C. Elegans 150 ppm” value worked out at 9.
Consider `N#Cc1[nH]c(-c2ccc(Cl)cc2)c(C#N)c1Br` [3-Bromo-5-(p-chlorophenyl)pyrrole-2,4-dicarbonitrile], for which the “% Helminth removal” value in assay [6] (500 PPM in diet, 4 days) was 54% and 36% and 50%; in assay [6] (single oral dose 10 mg/kg), 25%; in assay [6] (single oral dose 25 mg/kg), 18%. Also, the mortality at 20 µg/cm2, 20 µg/cm2 in assay [2] is 47%. Besides, the inhibition at 1 ppm in assay [3] (1.0 ppm) came out at 0%. At 10 ppm the inhibition in assay [3] was 100%. Besides, in assay [4] (setting [8]), the mortality at 4 µg/cm2, 4 µg/cm2 stood at 48%. Besides, in assay [5], the “Rating Against C. Elegans 150 ppm” value was 9.
As for `O=[N+]([O-])c1c(-c2ccccc2)[nH]c(C(F)(F)F)c1C(F)(F)F` [3-nitro-2-phenyl-4,5-bis(trifluoromethyl)pyrrole], the “% Helminth removal” value in assay [6] (500 PPM in diet, 4 days) turned out to be 42%. For the same molecule, the “Rating Against C. Elegans 150 ppm” value in assay [5] was 9.
Regarding `O=[N+]([O-])c1cc(C(F)(F)F)[nH]c1-c1ccc(Cl)c(Cl)c1` [2-(3,4-Dichlorophenyl)-3-nitro-5-(trifluoromethyl)-pyrrole], in assay [2], the mortality at 20 µg/cm2, 20 µg/cm2 amounted to 73%. This molecule had an inhibition at 10 ppm in assay [3] of 100%. The mortality at 4 µg/cm2, 4 µg/cm2 in assay [4] (setting [7]) was found to be 100%. Moreover, in assay [5], the “Rating Against C. Elegans 150 ppm” value worked out at 9.
